Test results as given in paper PMC9454457 (Journal of Nuclear Medicine, 2022).
Where two headings read alike, the source gives them in different places.

How the values were obtained:
[1] = In vitro metabolic stability in human plasma; format: in vitro ADME; details: 37°C, 72 ± 2 h, n = 4
Experimental: Metabolic stability in vitro was determined through a procedure published by Linder et al. that was slightly modified ([16]). Immediately after labeling, 200 μL of human plasma were added and the mixture was incubated at 37°C for 72 ± 2 h. Proteins were precipitated by treatment with ice-cold EtOH (150 μL) and ice-cold MeCN (450 μL), followed by centrifugation (13,000 rpm, 20 min). The supernatants were decanted and further centrifuged (13,000 rpm, 10 min) using a Costar Spin-X (Corning) centrifuge tube filter (0.45 μm). The filtrated plasma samples were analyzed using radio–RP-HPLC.
(§1) FIGURE 2. Preclinical data of ^nat/177Lu-RM2 (red), ^nat/177Lu-NeoBOMB1 (gray), ^nat/177Lu-AMTG (green), and ^nat/177Lu-AMTG2 (blue). (A) Affinity data on PC-3 and T-47D cells (1.5 × 10^5 cells/mL/well) using 3-^125I-D-Tyr^6-MJ9 (0.2 nM/well) as radiolabeled reference (2 h, room temperature, Hanks’ balanced salt solution plus 1% bovine serum albumin [v/v]). (B) GRPR-mediated internalization (0.25 pmol/well) on PC-3 cells as percentage of applied activity (incubation at 37°C for 1 h, Dulbecco modified Eagle medium/F-12 plus 5% bovine serum albumin [v/v], 1.5 × 10^5 cells/mL/well). Data were corrected for nonspecific binding (10^−3 M ^natLu-RM2). (C) Lipophilicity at pH 7.4 (logD7.4). (D) Metabolic stability in vitro in human plasma (left) (37°C, 72 ± 2 h; n = 4), and metabolic stability in vivo in murine plasma (middle) and murine urine (right) at 30 min after injection (n = 3). Data are expressed as mean ± SD.

[2] = In vivo metabolic stability in murine plasma and urine; design: species or system CB17-SCID mice; details: 30 min after injection, n = 3
Experimental: Approximately 30–40 MBq (1 nmol, 150 μL) of the ^177Lu-labeled compounds were injected into the tail vein of anesthetized CB17-SCID mice (n = 3). After euthanasia at 30 min after injection, blood and urine samples were collected. Blood proteins were precipitated by treatment with ice-cold MeCN (v/v = 1/1), followed by centrifugation (13,000 rpm, 20 min). The supernatants were decanted and further centrifuged (13,000 rpm, 10 min) using a Costar Spin-X centrifuge tube filter (0.45 μm). The filtrated plasma samples and the urine samples were analyzed using radio–RP-HPLC.
as §1

[3] = Biodistribution in PC-3 tumor-bearing CB17-SCID mice; format: in vivo; details: 24 h after injection; for tissue uptake at 24 h: CB17-SCID, mouse, intravenous, total radioactivity
Experimental: A detailed description of tumor inoculation is provided in the supplemental materials. Approximately 2–5 MBq (100 pmol, 150 μL) of the ^177Lu-labeled GRPR ligands were injected into the tail vein of anesthetized (2% isoflurane) PC-3 tumor–bearing mice (biodistribution, n = 4; imaging, n = 1).
For biodistribution studies, organs were removed, weighed, and measured in a γ-counter (Perkin Elmer) after euthanasia at 24 h after injection.
For all competition studies, 3.62 mg/kg (40 nmol) of ^natLu-RM2 (10^−3 M in phosphate-buffered saline) were coadministered.

[4] = adrenal, 100 pmol, 100 pmol, n = 4, read-out: Biodistribution, Adrenal
[5] = adrenal, 3.62 mg/kg, coinjection of natLu-RM2 3.62 mg/kg, n = 3, read-out: Biodistribution, Adrenal, competition study
[6] = blood, 100 pmol, 100 pmol, n = 4, read-out: Biodistribution, Blood
[7] = blood, 3.62 mg/kg, coinjection of natLu-RM2 3.62 mg/kg, n = 3, read-out: Biodistribution, Blood, competition study
[8] = bone, 100 pmol, 100 pmol, n = 4, read-out: Biodistribution, Bone
[9] = bone, 3.62 mg/kg, coinjection of natLu-RM2 3.62 mg/kg, n = 3, read-out: Biodistribution, Bone, competition study
[10] = heart, 100 pmol, 100 pmol, n = 4, read-out: Biodistribution, Heart
[11] = heart, 3.62 mg/kg, coinjection of natLu-RM2 3.62 mg/kg, n = 3, read-out: Biodistribution, Heart, competition study
[12] = intestine, 100 pmol, 100 pmol, n = 4, read-out: Biodistribution, Intestine
[13] = intestine, 3.62 mg/kg, coinjection of natLu-RM2 3.62 mg/kg, n = 3, read-out: Biodistribution, Intestine, competition study
[14] = kidney, 100 pmol, 100 pmol, n = 4, read-out: Biodistribution, Kidney
[15] = kidney, 3.62 mg/kg, coinjection of natLu-RM2 3.62 mg/kg, n = 3, read-out: Biodistribution, Kidney, competition study
[16] = liver, 100 pmol, 100 pmol, n = 4, read-out: Biodistribution, Liver
[17] = liver, 3.62 mg/kg, coinjection of natLu-RM2 3.62 mg/kg, n = 3, read-out: Biodistribution, Liver, competition study
[18] = lung, 100 pmol, 100 pmol, n = 4, read-out: Biodistribution, Lung
[19] = lung, 3.62 mg/kg, coinjection of natLu-RM2 3.62 mg/kg, n = 3, read-out: Biodistribution, Lung, competition study
[20] = muscle, 100 pmol, 100 pmol, n = 4, read-out: Biodistribution, Muscle
[21] = muscle, 3.62 mg/kg, coinjection of natLu-RM2 3.62 mg/kg, n = 3, read-out: Biodistribution, Muscle, competition study
[22] = pancreas, 100 pmol, 100 pmol, n = 4, read-out: Biodistribution, Pancreas
[23] = pancreas, 3.62 mg/kg, coinjection of natLu-RM2 3.62 mg/kg, n = 3, read-out: Biodistribution, Pancreas, competition study
[24] = spleen, 100 pmol, 100 pmol, n = 4, read-out: Biodistribution, Spleen
[25] = spleen, 3.62 mg/kg, coinjection of natLu-RM2 3.62 mg/kg, n = 3, read-out: Biodistribution, Spleen, competition study
[26] = stomach, 100 pmol, 100 pmol, n = 4, read-out: Biodistribution, Stomach
[27] = stomach, 3.62 mg/kg, coinjection of natLu-RM2 3.62 mg/kg, n = 3, read-out: Biodistribution, Stomach, competition study
[28] = tumor (PC-3), 100 pmol, PC-3 tumor, 100 pmol, n = 4, read-out: Biodistribution, Tumor
[29] = tumor (PC-3), 3.62 mg/kg, PC-3 tumor, coinjection of natLu-RM2 3.62 mg/kg, n = 3, read-out: Biodistribution, Tumor, competition study

Intact compound in human plasma in vitro [1]	Intact tracer in murine plasma in vivo [2]	Intact tracer in murine urine in vivo [2]	tissue uptake at 24 h [3, 4] [%ID/g]	tissue uptake at 24 h [3, 5] [%ID/g]	tissue uptake at 24 h [3, 6] [%ID/g]	tissue uptake at 24 h [3, 7] [%ID/g]	tissue uptake at 24 h [3, 8] [%ID/g]	tissue uptake at 24 h [3, 9] [%ID/g]	tissue uptake at 24 h [3, 10] [%ID/g]	tissue uptake at 24 h [3, 11] [%ID/g]	tissue uptake at 24 h [3, 12] [%ID/g]	tissue uptake at 24 h [3, 13] [%ID/g]	tissue uptake at 24 h [3, 14] [%ID/g]	tissue uptake at 24 h [3, 15] [%ID/g]	tissue uptake at 24 h [3, 16] [%ID/g]	tissue uptake at 24 h [3, 17] [%ID/g]	tissue uptake at 24 h [3, 18] [%ID/g]	tissue uptake at 24 h [3, 19] [%ID/g]	tissue uptake at 24 h [3, 20] [%ID/g]	SMILES	other results
77.7% ± 8.7%	92.9% ± 0.7%	68.2% ± 3.1%	0.46 ± 0.22	0.09 ± 0.07	0.004 ± 0.001	0.003	0.05 ± 0.02	0.05 ± 0.03	0.02	0.02 ± 0.01	0.2 ± 0.1	0.27 ± 0.21	1.2 to 1.9	1.17 ± 0.26	0.14 ± 0.03	1.4 ± 0.86	0.04 ± 0.01	0.27 ± 0.15	0.005 ± 0.003	CC(C)C[C@H](NC(=O)C[C@H](O)[C@H](CC(C)C)NC(=O)[C@H](Cc1c[nH]cn1)NC(=O)CNC(=O)[C@@H](NC(=O)[C@H](C)NC(=O)[C@](C)(Cc1c[nH]c2ccccc12)NC(=O)[C@H](CCC(N)=O)NC(=O)[C@@H](Cc1ccccc1)NC(=O)CN1CCC(NC(=O)CN2CCN(CC(=O)O)CCN(CC(=O)O)CCN(CC(=O)O)CC2)CC1)C(C)C)C(N)=O [^177Lu-AMTG, ^177Lu-α-Me-L-Trp^8-RM2, metal not drawn]	Higher activity level in PC-3 tumor than for 177Lu-RM2 [3]: 35%; tissue uptake at 24 h [3, 21]: 0.003 ± 0.002 %ID/g; tissue uptake at 24 h [3, 22]: 0.56 ± 0.3 %ID/g; tissue uptake at 24 h [3, 23]: 0.05 ± 0.03 %ID/g; tissue uptake at 24 h [3, 24]: 0.1 ± 0.02 %ID/g; tissue uptake at 24 h [3, 25]: 2.97 ± 2.01 %ID/g; tissue uptake at 24 h [3, 26]: 0.1 ± 0.04 %ID/g; tissue uptake at 24 h [3, 27]: 0.04 ± 0.02 %ID/g; tissue uptake at 24 h [3, 28]: 11.5 %ID/g; tissue uptake at 24 h [3, 29]: 0.33 ± 0.2 %ID/g
66.2% ± 5.1%	77.6% ± 3.1%	61.6% ± 1.6%	0.26 ± 0.14	0.03 ± 0.02	0.011	0.002 ± 0.001	0.22 ± 0.05	0.02 ± 0.01	0.03 ± 0.02	0.02 ± 0.01	0.3 ± 0.04	0.34 ± 0.35	1.2 to 1.9	1.63 ± 0.44	0.32 ± 0.14	0.74 ± 0.44	0.05 ± 0.01	1.18 ± 1.49	0.003 ± 0.003	CC(C)C[C@H](NC(=O)C[C@H](O)[C@H](CC(C)C)NC(=O)[C@H](Cc1c[nH]cn1)NC(=O)CNC(=O)[C@@H](NC(=O)[C@H](C)NC(=O)[C@](C)(Cc1c[nH]c2ccccc12)NC(=O)[C@H](CCC(N)=O)NC(=O)[C@@H](Cc1ccccc1)NC(=O)CN1CCC(NC(=O)CCC(C(=O)O)N2CCN(CC(=O)O)CCN(CC(=O)O)CCN(CC(=O)O)CC2)CC1)C(C)C)C(N)=O (stereo partly drawn) [^177Lu-AMTG2, ^177Lu-DOTAGA-α-Me-L-Trp^8-RM2, metal not drawn]	tissue uptake at 24 h [3, 21]: 0.003 ± 0.002 %ID/g; tissue uptake at 24 h [3, 22]: 0.95 ± 0.14 %ID/g; tissue uptake at 24 h [3, 23]: 0.07 ± 0.01 %ID/g; tissue uptake at 24 h [3, 24]: 0.15 ± 0.07 %ID/g; tissue uptake at 24 h [3, 25]: 1.06 ± 1.08 %ID/g; tissue uptake at 24 h [3, 26]: 0.12 ± 0.03 %ID/g; tissue uptake at 24 h [3, 27]: 0.04 ± 0.01 %ID/g; tissue uptake at 24 h [3, 28]: 7.97 ± 1.34 %ID/g; tissue uptake at 24 h [3, 29]: 0.36 ± 0.25 %ID/g
